# Experimental data as given in patent US20050261472A1, “Binding moieties for fibrin” (Dyax Corp., priority 1999, published 2005).
# Bridge positions count the residues as written; N and C are the ends. Peptide text beside a SMILES is read from it.
# How the values were obtained:
# Type in all cases: binding
# fibrin = target: T1, fibrin (Homo sapiens, UniProt P02671+P02675+P02679); experiment: dried fibrin plate ELISA of phage isolates; details: phage isolates from TN7 library; symbols not defined
# T1 construct: Thrombin cleavage at the Arg16-Arg17 bond in the Ax chains and at the Arg14-Gly15 bond on the BP chains releases fibrinopeptides A and B; host or cells: fibrinogen solution clotted with thrombin in 96-well plates and dried at 37 C
# T1 sequence (P02671 36-629 limits assumed): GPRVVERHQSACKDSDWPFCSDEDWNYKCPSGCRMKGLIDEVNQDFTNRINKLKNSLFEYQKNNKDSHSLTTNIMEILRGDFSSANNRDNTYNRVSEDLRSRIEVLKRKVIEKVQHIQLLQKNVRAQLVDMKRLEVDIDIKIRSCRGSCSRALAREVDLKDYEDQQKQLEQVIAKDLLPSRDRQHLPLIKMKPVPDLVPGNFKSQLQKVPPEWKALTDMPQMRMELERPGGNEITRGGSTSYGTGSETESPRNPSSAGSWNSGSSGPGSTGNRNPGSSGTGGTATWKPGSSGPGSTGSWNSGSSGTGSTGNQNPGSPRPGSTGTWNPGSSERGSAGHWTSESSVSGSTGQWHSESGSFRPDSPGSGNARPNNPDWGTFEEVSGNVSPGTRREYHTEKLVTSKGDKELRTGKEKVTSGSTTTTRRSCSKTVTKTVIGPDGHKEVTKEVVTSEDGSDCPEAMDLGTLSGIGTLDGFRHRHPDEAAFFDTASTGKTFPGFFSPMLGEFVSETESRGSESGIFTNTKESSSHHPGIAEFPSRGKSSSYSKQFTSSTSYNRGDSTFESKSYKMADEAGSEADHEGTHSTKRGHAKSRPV
# T1 sequence (P02675 45-491 limits assumed): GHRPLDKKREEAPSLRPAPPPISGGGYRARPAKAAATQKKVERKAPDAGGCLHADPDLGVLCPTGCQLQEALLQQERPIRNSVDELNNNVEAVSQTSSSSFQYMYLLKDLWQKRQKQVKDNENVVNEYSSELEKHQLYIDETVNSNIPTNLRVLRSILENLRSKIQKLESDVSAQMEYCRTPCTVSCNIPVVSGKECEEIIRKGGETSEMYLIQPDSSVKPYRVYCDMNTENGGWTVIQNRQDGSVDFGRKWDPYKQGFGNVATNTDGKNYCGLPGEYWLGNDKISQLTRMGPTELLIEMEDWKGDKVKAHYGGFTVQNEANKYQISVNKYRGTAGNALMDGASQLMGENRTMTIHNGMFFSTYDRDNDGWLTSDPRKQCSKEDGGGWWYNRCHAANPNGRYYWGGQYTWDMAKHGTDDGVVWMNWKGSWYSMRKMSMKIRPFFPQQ
# T1 sequence (P02679 27-437 isoform P02679-2 limits assumed): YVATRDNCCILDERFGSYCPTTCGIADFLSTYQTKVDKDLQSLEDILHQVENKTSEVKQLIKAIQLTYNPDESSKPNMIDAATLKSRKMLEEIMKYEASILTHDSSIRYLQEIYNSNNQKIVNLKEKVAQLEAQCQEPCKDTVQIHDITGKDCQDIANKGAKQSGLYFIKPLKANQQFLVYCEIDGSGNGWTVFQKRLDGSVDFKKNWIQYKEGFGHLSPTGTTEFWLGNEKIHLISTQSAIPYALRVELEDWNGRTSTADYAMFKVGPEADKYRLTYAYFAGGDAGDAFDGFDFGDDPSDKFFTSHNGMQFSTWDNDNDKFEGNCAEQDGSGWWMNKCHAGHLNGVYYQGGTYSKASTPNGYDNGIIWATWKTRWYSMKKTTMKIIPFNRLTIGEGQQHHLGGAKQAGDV
# Method: For screening libraries to isolate binding moieties for fibrin, two fibrin targets, i.e., synthetic fibrin clots and then a soluble fibrin fragment, DD(E), were prepared. To prepare fibrin for screening, dilute fibrin clots were formed in the wells of a 96-well plate, dried down to a thin layer, and then rehydrated prior to library screening. In a typical procedure, a 0.15 mg/ml fibrinogen solution was prepared in TBS buffer (50 mM Tris, 150 mM NaCl, pH 7.4). A solution containing 2 U/ml thrombin, 10 mM CaCl2, and 5 mM ε-aminocaproic acid in TBS was prepared. The fibrinogen solution and thrombin solution were mixed 1:1 in the wells of a 96-well plate, aliquoting 25 μL of each solution in each well (total volume=50 μL). The plates were evaporated to dryness by incubating them at 37° C. overnight. Just before a phage library was added to the dried fibrin target, the fibrin wells were washed three times for 10 minutes with phage blocking buffer (TBS containing 2 mM CaCl2, 0.1% Tween-20, and 0.1% human serum albumin (HSA)).
# After five rounds of selection, the eluted phage were propagated and a portion plated to isolate phage plaques arising from individual clones. Ninety such clones were selected randomly, propagated, and tested individually for binding to fibrin in a dried fibrin plate assay. Dried fibrin plates were prepared as described above for the library screening. Phage samples (˜10^9 phage each) were incubated in the dried fibrin plate wells in binding buffer (50 mM Tris, 150 mM NaCl, 2 mM CaCl2, 0.05% Tween-20) containing 0.1% HSA. After 1 hour, the plates were washed 5 times with binding buffer. Anti-M13 antibody conjugated to horseradish peroxidase (Pharmacia) was added at 1/5000 dilution in binding buffer to the wells and incubated with the fibrin for 1 hour. The wells were again washed 5 times with binding buffer and the presence of the antibody/phage/fibrin complex was measured with HRP calorimetric reagents (3,3′,5,5′-tetrarnethylbenzidine (TMB) and H2O2). A high absorbance at 595 nm (due to oxidized TMB) was indicative of a tight phage/fibrin interaction, and phage clones corresponding to those wells were identified as bearing fibrin-binding moieties.
# The amino acid sequence data from these phage isolates were sorted according to the degree of similarity and response in the fibrin ELISA assay.
# dried fibrin = target: T2, dried fibrin (Homo sapiens, UniProt P02671+P02675+P02679); experiment: dissociation constant against dried fibrin (free peptide by mass spectrometry)
# T2 construct: Thrombin cleavage at the Arg16-Arg17 bond in the Ax chains and at the Arg14-Gly15 bond on the BP chains releases fibrinopeptides A and B; host or cells: fibrinogen solution clotted with thrombin in 96-well plates and dried at 37 C
# T2 sequence (P02671 36-629 limits assumed): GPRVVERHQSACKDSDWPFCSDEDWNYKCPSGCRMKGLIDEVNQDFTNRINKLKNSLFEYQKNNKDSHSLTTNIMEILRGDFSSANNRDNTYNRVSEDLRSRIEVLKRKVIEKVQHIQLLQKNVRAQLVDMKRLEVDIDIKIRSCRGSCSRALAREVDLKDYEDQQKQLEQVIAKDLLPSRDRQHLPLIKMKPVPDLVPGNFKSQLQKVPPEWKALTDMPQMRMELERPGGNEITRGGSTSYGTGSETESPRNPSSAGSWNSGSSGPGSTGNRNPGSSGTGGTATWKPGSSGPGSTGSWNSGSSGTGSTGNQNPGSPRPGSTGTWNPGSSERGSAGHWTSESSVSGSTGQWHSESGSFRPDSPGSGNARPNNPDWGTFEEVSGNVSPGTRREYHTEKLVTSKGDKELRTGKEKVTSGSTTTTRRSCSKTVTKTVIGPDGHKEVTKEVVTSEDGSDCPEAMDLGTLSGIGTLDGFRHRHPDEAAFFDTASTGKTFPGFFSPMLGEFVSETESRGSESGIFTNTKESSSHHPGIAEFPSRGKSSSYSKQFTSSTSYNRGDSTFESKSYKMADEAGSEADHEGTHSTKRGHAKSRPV
# T2 sequence (P02675 45-491 limits assumed): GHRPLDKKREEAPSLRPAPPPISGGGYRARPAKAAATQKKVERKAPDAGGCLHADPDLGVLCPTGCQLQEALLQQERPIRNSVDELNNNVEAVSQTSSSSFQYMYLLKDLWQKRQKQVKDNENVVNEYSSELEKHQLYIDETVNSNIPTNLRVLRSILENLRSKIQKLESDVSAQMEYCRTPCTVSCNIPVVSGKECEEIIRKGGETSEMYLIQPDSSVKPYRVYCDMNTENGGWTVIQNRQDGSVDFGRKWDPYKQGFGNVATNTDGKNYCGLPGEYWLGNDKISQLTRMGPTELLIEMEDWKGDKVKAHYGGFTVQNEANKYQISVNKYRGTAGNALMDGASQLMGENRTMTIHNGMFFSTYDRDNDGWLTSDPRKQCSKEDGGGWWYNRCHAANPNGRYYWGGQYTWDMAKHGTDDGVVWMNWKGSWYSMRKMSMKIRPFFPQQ
# T2 sequence (P02679 27-437 isoform P02679-2 limits assumed): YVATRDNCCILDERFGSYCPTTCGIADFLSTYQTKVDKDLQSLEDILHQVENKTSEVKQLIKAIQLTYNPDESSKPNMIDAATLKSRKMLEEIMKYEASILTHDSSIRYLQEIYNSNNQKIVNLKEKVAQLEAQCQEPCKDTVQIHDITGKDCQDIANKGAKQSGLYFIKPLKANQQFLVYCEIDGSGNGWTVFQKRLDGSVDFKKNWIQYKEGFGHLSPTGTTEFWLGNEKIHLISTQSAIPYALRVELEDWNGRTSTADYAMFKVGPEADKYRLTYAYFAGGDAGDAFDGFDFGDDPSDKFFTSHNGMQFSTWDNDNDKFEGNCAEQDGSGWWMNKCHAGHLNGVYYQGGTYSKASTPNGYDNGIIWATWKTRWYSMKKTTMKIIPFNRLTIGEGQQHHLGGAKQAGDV
# Method: A fibrinogen solution was prepared at 10 mg/ml (or at twice the concentration of fibrin desired) in TBS buffer (50 mM Tris, 150 mM NaCl, pH 7.4). The fibrinogen solution typically contained ˜17 mM citrate. Subsequently, a solution was prepared containing 2 U/ml thrombin, 20 mM CaCl2, and 5 mM ε-aminocaproic acid in TBS. The fibrinogen solution and thrombin solution were mixed 1:1 in the wells of a 96-well plate, aliquoting 50 μL of each solution in each well (total volume=100 μL). The plates were evaporated to dryness overnight at 37° C. The polypeptide to be tested, dissolved in water, was added to each well at concentrations between 1-200 μM. A typical binding assay contained 24 points at concentrations of 2, 4, 6, 8, 10, 12, 14, 17, 20, 23, 26, 30, 35, 40, 45, 50, 60, 70, 80, 100, 125, 150, 175, and 200 μM. The plate containing the peptide and (rehydrated) dried fibrin was covered and incubated at 37° C. on a shaker table for 2 hours.
# The supernatant in each well was removed by pipette and the concentration of the polypeptide was measured by mass spectrometry. The ion current detected at the mass of the peptide was monitored after injection of a sample into the mass spectrometer. The area-under-the-peak was quantitated and compared to standards of known concentration. The concentration of peptide in the supernatant is equal to the concentration of free peptide. The concentration of bound peptide was determined by subtracting the concentration of free peptide from the total (starting) concentration. A plot of [Bound Peptide] vs. [Free Peptide] was used to determine the Kd and the concentration of bound peptide at saturation. The curve was fit to the equation: [Bound]=N×[Free]/(Kd+[Free]) where [Bound] is the concentration of bound polypeptide, [Free] is the concentration of free polypeptide, Kd is the dissociation constant (equal to the reciprocal of Ka) and N is the concentration of binding sites. The number of binding sites per fibrin molecule was equal to the lo concentration of binding sites determined by the [Bound Polypeptide] vs. [Free Polypeptide] plot, divided by the concentration of fibrin (15 μM) used in the assay.
# DD(E) = target: T3, DD(E) (Homo sapiens, UniProt P02671+P02675+P02679); experiment: dissociation constant against fibrin-derived polypeptide DD(E); details: read-out: Kd DD(E)
# T3 construct: host or cells: purchased fibrinogen clotted with thrombin, digested with plasmin, then purified by ammonium sulfate cuts and Sephacryl S200
# Method: The soluble fibrin-derived polypeptide DD(E) was prepared following a modification of a published method (Moskoitz and Budzynksi, Biochemistry, 33: 12937-12944 (1994) and references therein). Fibrinogen containing a Factor XIII trace impurity (1 g, Grade L; purchased from American Diagnostica) was dissolved in TBS buffer and dialyzed overnight against TBS containing 5 mM citrate. The fibrinogen concentration was adjusted to 3.0 mg/ml and CaCl2 was added to a concentration of 10 mM. Clotting of the fibrinogen was initiated by the addition of thrombin to 0.5 U/ml and the clot was incubated for 3 hours at 37° C. The clot was cut up with a spatula to release water and to concentrate the clot. The clot pieces were washed twice with TBS.Ca buffer (TBS containing 2 mM CaCl2) and were centrifuged at 4,000×g to compact the clots between washes. The clot material was resuspended in 250 ml TBS containing 25 mM CaCl2 and 2 K.I.U. plasmin per mg fibrin. The clots were digested overnight at 20° C. Undigested clot was removed by pipette, and the supernatant was shaken with 10 ml of Lysine Sepharose (Pharmacia) for 30 minutes and filtered to remove the resin. Aprotinin was added to the filtrate to a concentration of 500 U/μL. Ammonium Sulfate was added to 30% saturation and the precipitated protein was removed by centrifugation. More ammonium sulfate was added to the supernatant to a final concentration of 50% saturation, and the precipitated protein was concentrated by centrifugation. The pellets, containing DD(E), were resuspended in a small volume of buffer (50 mM Tris, 150 mM NaCl, 2 mM CaCl2) (<10 ml) and chromatographed on a Sephacryl S200 (Pharmacia) size exclusion column (5×100 cm) in the same buffer. Fractions of protein eluted from the column were assayed by SDS-PAGE for DD(E). DD(E) contains subunits of 55 kD (Fragment E) and 190 kD (Fragment DD). […]
# Dissociation constants were determined against DD(E) as described above.
compound,measurement,setting,value
8 (RPCDYYGTCFD; synthetic fibrin binding peptide) [compound 8],relative binding,fibrin,+ + +
H-LPSDYYGTSLD-NH2 [compound 38],Kd,dried fibrin,> 100 µM
same,Kd,DD(E),> 100 µM
4 (YYGT; recurrent motif among synthetic fibrin binding peptides) [compound 4],relative binding,fibrin,+ + +
7 (FACHYYGTCLH; synthetic fibrin binding peptide) [compound 7],relative binding,fibrin,+ + +
"CC(C)CC(N)C(=O)N1CCCC1C(=O)NC1CSSCC(C(=O)NC(CC(C)C)C(=O)NC(CC(=O)O)C(N)=O)NC(=O)C(C(C)O)NC(=O)CNC(=O)C(Cc2ccc(O)cc2)NC(=O)C(Cc2ccc(O)cc2)NC(=O)C(CC(=O)O)NC1=O (stereo not shown) [SEQ ID NO: 9, LPCDYYGTCLD]",Kd,dried fibrin,2.7 µM
same,Kd,DD(E),2.6 µM
"CC(C)C[C@H](NC(=O)[C@@H]1CSSC[C@H](NC(=O)[C@@H]2CCCN2C(=O)[C@@H](N)CC(C)C)C(=O)N[C@@H](CC(=O)O)C(=O)N[C@@H](Cc2ccc(O)cc2)C(=O)N[C@@H](Cc2ccc(O)cc2)C(=O)NCC(=O)N[C@@H](C)C(=O)N1)C(=O)N[C@@H](CC(=O)O)C(N)=O [SEQ ID NO: 46, LPCDYYGACLD] (H-LPCDYYGACLD-NH2; disulfide 3-9)",Kd,dried fibrin,> 100 µM
same,Kd,DD(E),> 100 µM
9 (LPCDYYGTCLD; synthetic fibrin binding peptide) [compound 9],relative binding,fibrin,+ + +
